The text below walks through data of ChEMBL document CHEMBL4229381, “New cytokinin derivatives possess UVA and UVB photoprotective effect on human skin cells and prevent oxidative stress” (Eur J Med Chem, 2018).

Each structure is given as a SMILES string. Activity calls are given as the source filed them. The rule behind the calls is not given here.

The nature of data set [1]: Phototoxicity in human HaCaT cells assessed as cell viability at 15.6 uM preincubated for 60 mins followed by 7.5 J/cm2 UVA irradiation and measured after 24 hrs by neutral red uptake assay relative to control. The settings on record: read-out: Activity. The format is cell-based.
The subject of data set [2] is HaCaT. Put plainly: Potency index, ratio of compound effect to rosmarinic acid effect for cytoprotection against phototoxicity in human HaCaT cells assessed as increase in cell viability at 3.9 uM preincubated for 60 mins followed by 10 J/cm2 UVA irradiation and measured after 24 hrs by neutral red uptake assay. The format is functional.
Data set [3] in a line: Cytotoxicity in human HaCaT cells assessed as cell viability at 125 uM after 24 hrs by neutral red uptake assay relative to control. The following applies: read-out: Activity. It counts as cell-based.
Data set [4] can be described thus: Cytotoxicity in human NHDF cells assessed as cell viability at 125 uM after 24 hrs by neutral red uptake assay relative to control. The following applies: read-out: Activity. It counts as cell-based.
The nature of data set [5]: Stability of the compound in pH 6 solution at 10^-4 M after 24 hrs by HPLC analysis. The settings on record: read-out: Stability. It counts as physicochemical.
Data set [6] relates to NHDF. Put plainly: Cytoprotection against phototoxicity in human NHDF cells assessed as increase in cell viability at 31.3 uM preincubated for 60 mins followed by 150 mJ/cm2 UVB irradiation and measured after 24 hrs by neutral red uptake assay. The format is functional, cell-based.
Data set [7] deals with Amaranthus caudatus. Put plainly: Growth promoting activity in Amaranthus caudatus var. atropurpurea seeds by measuring betacyanin at 10^-4 mol/L after 48 hrs relative to control. It counts as functional.
Data set [8] relates to HaCaT. Put plainly: Cytotoxicity in human HaCaT cells assessed as reduction in cell viability at 50 uM after 24 hrs by resazurin dye-based fluorescence assay relative to control. On the technique in general: Resazurin is reduced to fluorescent resorufin, in cell work by metabolically active cells.
Data set [9] has as its system HaCaT. Description: Potency index, ratio […] for cytoprotection against phototoxicity in human HaCaT cells assessed as increase in cell viability at 3.9 preincubated for 60 mins followed by 150 mJ/cm2 UVB irradiation and measured after 24 hrs by neutral red uptake assay. It counts as functional.
The nature of data set [10]: Phototoxicity in human HaCaT cells assessed as cell viability at 31.3 uM preincubated for 60 mins followed by 7.5 J/cm2 UVA irradiation and measured after 24 hrs by neutral red uptake assay relative to control. It counts as cell-based. The following applies: read-out: Activity.
Data set [11] relates to Nicotiana tabacum. Put plainly: Growth promoting activity in tobacco callus assessed as callus weight at 10^-5 mol/L after 4 weeks relative to control. It counts as functional.
The nature of data set [12]: Stability of the compound in pH 3 solution at 10^-4 M after 24 hrs by HPLC analysis. The format is physicochemical. The settings on record: read-out: Stability.
Data set [13] in a line: Phototoxicity in human HaCaT cells assessed as cell viability at 3.9 uM preincubated for 60 mins followed by 7.5 J/cm2 UVA irradiation and measured after 24 hrs by neutral red uptake assay relative to control. It counts as cell-based. The following applies: read-out: Activity.

Regarding `c1csc(CNc2ncnc3c2ncn3C2CCCO2)c1` (stereo not drawn), the viability at 24 h, 15.6 µM in data set [1] came to 121%. Besides, the values for the Ratio in [2] and in [9] were 3 and over 2, respectively. The viability at 24 h, 125 µM worked out at 103% in data set [3] and 108% in data set [4]. For the same compound, the results for the remaining at 24 h, 100 µM in [5] and in data set [12] were 100% and 0.8%, respectively. Moreover, the outcome in [6] was Active. Also, the Activity in [7] is listed as 81%; in data set [8], under 10%; in [11], 105%. For the same compound, the viability at 24 h, 31.3 µM in data set [10] turned out to be 128%. In addition, the viability at 24 h, 3.9 µM in [13] turned out to be 123%.
